Test system: PC-3
Experiment: Cell cycle arrest in human PC3 cells assessed as accumulation at S phase at 4 uM after 48 hrs by flow cytometry (Rvb=21.10%)
Type: functional
Conditions: not given

Structure (SMILES)	Activity [%]
COc1cc(-c2nnc3n2NC(c2cccs2)C(C(=O)c2ccc(C)cc2)S3)cc(OC)c1OC (stereo not given)	12.53

Test system: PC-3
Experiment: Cell cycle arrest in human PC3 cells assessed as accumulation at Sub-G1 phase at 8 uM after 48 hrs by flow cytometry (Rvb=0.37%)
Type: functional
Conditions: not given

Structure (SMILES)	Activity [%]
COc1cc(-c2nnc3n2NC(c2cccs2)C(C(=O)c2ccc(C)cc2)S3)cc(OC)c1OC (stereo not given)	0.38

Test system: PC-3
Experiment: Cell cycle arrest in human PC3 cells assessed as accumulation at Sub-G1 phase at 4 uM after 48 hrs by flow cytometry (Rvb=0.37%)
Type: functional
Conditions: not given

Structure (SMILES)	Activity [%]
COc1cc(-c2nnc3n2NC(c2cccs2)C(C(=O)c2ccc(C)cc2)S3)cc(OC)c1OC (stereo not given)	0.3

Test system: PC-3
Experiment: Cell cycle arrest in human PC3 cells assessed as accumulation at G0/G1 phase at 8 uM after 48 hrs by flow cytometry (Rvb=60.55%)
Type: functional
Conditions: not given

Structure (SMILES)	Activity [%]
COc1cc(-c2nnc3n2NC(c2cccs2)C(C(=O)c2ccc(C)cc2)S3)cc(OC)c1OC (stereo not given)	23.69

Test system: PC-3
Experiment: Cell cycle arrest in human PC3 cells assessed as accumulation at Sub-G1 phase at 2 uM after 48 hrs by flow cytometry (Rvb=0.37%)
Type: functional
Conditions: not given

Structure (SMILES)	Activity [%]
COc1cc(-c2nnc3n2NC(c2cccs2)C(C(=O)c2ccc(C)cc2)S3)cc(OC)c1OC (stereo not given)	0.92

Test system: HepG2
Experiment: Potency index, ratio of IC50 for fluorouracil to IC50 for test compound for human HepG2 cells
Type: functional
Conditions: not given

Structure (SMILES)	Ratio IC50
COc1cc(-c2nnc3n2NC(c2cccs2)C(C(=O)c2ccc(C)cc2)S3)cc(OC)c1OC (stereo not given)	11
COc1cc(-c2nnc3n2NC(c2ccco2)C(C(=O)c2ccc(C)cc2)S3)cc(OC)c1OC (stereo not given)	2.7

Test system: PC-3
Experiment: Cell cycle arrest in human PC3 cells assessed as accumulation at G0/G1 phase at 4 uM after 48 hrs by flow cytometry (Rvb=60.55%)
Type: functional
Conditions: not given

Structure (SMILES)	Activity [%]
COc1cc(-c2nnc3n2NC(c2cccs2)C(C(=O)c2ccc(C)cc2)S3)cc(OC)c1OC (stereo not given)	29.4

Test system: PC-3
Experiment: Cell cycle arrest in human PC3 cells assessed as accumulation at G0/G1 phase at 2 uM after 48 hrs by flow cytometry (Rvb=60.55%)
Type: functional
Conditions: not given

Structure (SMILES)	Activity [%]
COc1cc(-c2nnc3n2NC(c2cccs2)C(C(=O)c2ccc(C)cc2)S3)cc(OC)c1OC (stereo not given)	33.85

Test system: PC-3
Experiment: Cytotoxicity against human PC3 cells after 48 hrs by MTT assay
Type: functional, cell-based
Conditions: PC-3, 48 h

Structure (SMILES)	IC50 [µM]
COc1cc(-c2nnc3n2NC(c2ccco2)C(C(=O)c2ccc(O)cc2)S3)cc(OC)c1OC (stereo not given)	38.3
COc1cc(-c2nnc3n2NC(c2ccco2)C(C(=O)c2ccc(C(F)(F)F)cc2)S3)cc(OC)c1OC (stereo not given)	77.5
COc1cc(C(=O)C2Sc3nnc(-c4cc(OC)c(OC)c(OC)c4)n3NC2c2cccs2)cc(OC)c1OC (stereo not given)	> 100
COc1ccc(C(=O)C2Sc3nnc(-c4cc(OC)c(OC)c(OC)c4)n3NC2c2cccs2)cc1 (stereo not given)	95.9
COc1cc(-c2nnc3n2NC(c2ccco2)C(C(=O)c2ccc(Cl)cc2)S3)cc(OC)c1OC (stereo not given)	67.8
COc1cc(-c2nnc3n2NC(c2ccco2)C(C(=O)C2CC2)S3)cc(OC)c1OC (stereo not given)	95.2
COc1cc(-c2nnc3n2NC(c2cccs2)C(C(=O)c2ccc(C)cc2)S3)cc(OC)c1OC (stereo not given)	5.09
COc1ccc(C(=O)C2Sc3nnc(-c4cc(OC)c(OC)c(OC)c4)n3NC2c2ccco2)cc1 (stereo not given)	> 100
COc1cc(-c2nnc3n2NC(c2cccs2)C(C(=O)c2ccc(F)cc2)S3)cc(OC)c1OC (stereo not given)	27.4
COc1cc(-c2nnc3n2NC(c2ccco2)C(C(=O)c2ccccc2C)S3)cc(OC)c1OC (stereo not given)	88.4
COc1cc(-c2nnc3n2NC(c2ccco2)C(C(=O)c2ccco2)S3)cc(OC)c1OC (stereo not given)	58.3
COc1cc(-c2nnc3n2NC(c2cccs2)C(C(=O)c2ccc(Cl)cc2)S3)cc(OC)c1OC (stereo not given)	32.5
COc1cc(-c2nnc3n2NC(c2ccco2)C(C(=O)c2ccc(C)cc2)S3)cc(OC)c1OC (stereo not given)	7.5

Test system: PC-3
Experiment: Cell cycle arrest in human PC3 cells assessed as accumulation at G2/M phase after 48 hrs by flow cytometry
Type: functional, cell-based
Conditions: not given

Structure (SMILES)	Activity
COc1cc(-c2nnc3n2NC(c2cccs2)C(C(=O)c2ccc(C)cc2)S3)cc(OC)c1OC (stereo not given)	Dose-dependent effect

Test system: PC-3
Experiment: Cell cycle arrest in human PC3 cells assessed as accumulation at G2/M phase at 8 uM after 48 hrs by flow cytometry (Rvb=16.72%)
Type: functional
Conditions: not given

Structure (SMILES)	Activity [%]
COc1cc(-c2nnc3n2NC(c2cccs2)C(C(=O)c2ccc(C)cc2)S3)cc(OC)c1OC (stereo not given)	65.1

Test system: MCF7
Experiment: Cytotoxicity against human MCF7 cells after 48 hrs by MTT assay
Type: functional, cell-based
Conditions: MCF7, 48 h

Structure (SMILES)	IC50 [µM]
COc1cc(-c2nnc3n2NC(c2ccco2)C(C(=O)c2ccc(O)cc2)S3)cc(OC)c1OC (stereo not given)	88.9
COc1cc(-c2nnc3n2NC(c2ccco2)C(C(=O)c2ccc(C(F)(F)F)cc2)S3)cc(OC)c1OC (stereo not given)	33.6
COc1cc(C(=O)C2Sc3nnc(-c4cc(OC)c(OC)c(OC)c4)n3NC2c2cccs2)cc(OC)c1OC (stereo not given)	71
COc1ccc(C(=O)C2Sc3nnc(-c4cc(OC)c(OC)c(OC)c4)n3NC2c2cccs2)cc1 (stereo not given)	49.5
COc1cc(-c2nnc3n2NC(c2ccco2)C(C(=O)c2ccc(Cl)cc2)S3)cc(OC)c1OC (stereo not given)	> 100
COc1cc(-c2nnc3n2NC(c2ccco2)C(C(=O)C2CC2)S3)cc(OC)c1OC (stereo not given)	> 100
COc1cc(-c2nnc3n2NC(c2cccs2)C(C(=O)c2ccc(C)cc2)S3)cc(OC)c1OC (stereo not given)	28.4
COc1ccc(C(=O)C2Sc3nnc(-c4cc(OC)c(OC)c(OC)c4)n3NC2c2ccco2)cc1 (stereo not given)	> 100
COc1cc(-c2nnc3n2NC(c2cccs2)C(C(=O)c2ccc(F)cc2)S3)cc(OC)c1OC (stereo not given)	43.6
COc1cc(-c2nnc3n2NC(c2ccco2)C(C(=O)c2ccccc2C)S3)cc(OC)c1OC (stereo not given)	69.9
COc1cc(-c2nnc3n2NC(c2ccco2)C(C(=O)c2ccco2)S3)cc(OC)c1OC (stereo not given)	> 100
COc1cc(-c2nnc3n2NC(c2cccs2)C(C(=O)c2ccc(Cl)cc2)S3)cc(OC)c1OC (stereo not given)	42.8
COc1cc(-c2nnc3n2NC(c2ccco2)C(C(=O)c2ccc(C)cc2)S3)cc(OC)c1OC (stereo not given)	> 100

Test system: PC-3
Experiment: Cell cycle arrest in human PC3 cells assessed as accumulation at G2/M phase at 4 uM after 48 hrs by flow cytometry (Rvb=16.72%)
Type: functional
Conditions: not given

Structure (SMILES)	Activity [%]
COc1cc(-c2nnc3n2NC(c2cccs2)C(C(=O)c2ccc(C)cc2)S3)cc(OC)c1OC (stereo not given)	57

Test system: PC-3
Experiment: Potency index, ratio of IC50 for fluorouracil to IC50 for test compound for human PC3 cells
Type: functional
Conditions: not given

Structure (SMILES)	Ratio IC50
COc1cc(-c2nnc3n2NC(c2cccs2)C(C(=O)c2ccc(C)cc2)S3)cc(OC)c1OC (stereo not given)	3
COc1cc(-c2nnc3n2NC(c2ccco2)C(C(=O)c2ccc(C)cc2)S3)cc(OC)c1OC (stereo not given)	3

Test system: A549
Experiment: Potency index, ratio of IC50 for fluorouracil to IC50 for test compound for human A549 cells
Type: functional
Conditions: not given

Structure (SMILES)	Ratio IC50
COc1cc(-c2nnc3n2NC(c2cccs2)C(C(=O)c2ccc(C)cc2)S3)cc(OC)c1OC (stereo not given)	2

Test system: A549
Experiment: Cytotoxicity against human A549 cells after 48 hrs by MTT assay
Type: functional, cell-based
Conditions: A549, 48 h

Structure (SMILES)	IC50 [µM]
COc1cc(-c2nnc3n2NC(c2ccco2)C(C(=O)c2ccc(O)cc2)S3)cc(OC)c1OC (stereo not given)	93.4
COc1cc(-c2nnc3n2NC(c2ccco2)C(C(=O)c2ccc(C(F)(F)F)cc2)S3)cc(OC)c1OC (stereo not given)	37.1
COc1cc(C(=O)C2Sc3nnc(-c4cc(OC)c(OC)c(OC)c4)n3NC2c2cccs2)cc(OC)c1OC (stereo not given)	> 100
COc1ccc(C(=O)C2Sc3nnc(-c4cc(OC)c(OC)c(OC)c4)n3NC2c2cccs2)cc1 (stereo not given)	> 100
COc1cc(-c2nnc3n2NC(c2ccco2)C(C(=O)c2ccc(Cl)cc2)S3)cc(OC)c1OC (stereo not given)	51.4
COc1cc(-c2nnc3n2NC(c2ccco2)C(C(=O)C2CC2)S3)cc(OC)c1OC (stereo not given)	> 100
COc1cc(-c2nnc3n2NC(c2cccs2)C(C(=O)c2ccc(C)cc2)S3)cc(OC)c1OC (stereo not given)	12.7
COc1ccc(C(=O)C2Sc3nnc(-c4cc(OC)c(OC)c(OC)c4)n3NC2c2ccco2)cc1 (stereo not given)	> 100
COc1cc(-c2nnc3n2NC(c2cccs2)C(C(=O)c2ccc(F)cc2)S3)cc(OC)c1OC (stereo not given)	45
COc1cc(-c2nnc3n2NC(c2ccco2)C(C(=O)c2ccccc2C)S3)cc(OC)c1OC (stereo not given)	80
COc1cc(-c2nnc3n2NC(c2ccco2)C(C(=O)c2ccco2)S3)cc(OC)c1OC (stereo not given)	68.7
COc1cc(-c2nnc3n2NC(c2cccs2)C(C(=O)c2ccc(Cl)cc2)S3)cc(OC)c1OC (stereo not given)	20.1
COc1cc(-c2nnc3n2NC(c2ccco2)C(C(=O)c2ccc(C)cc2)S3)cc(OC)c1OC (stereo not given)	> 100

Test system: HepG2
Experiment: Cytotoxicity against human HepG2 cells after 48 hrs by MTT assay
Type: functional, cell-based
Conditions: HepG2, 48 h

Structure (SMILES)	IC50 [µM]
COc1cc(-c2nnc3n2NC(c2ccco2)C(C(=O)c2ccc(O)cc2)S3)cc(OC)c1OC (stereo not given)	> 100
COc1cc(-c2nnc3n2NC(c2ccco2)C(C(=O)c2ccc(C(F)(F)F)cc2)S3)cc(OC)c1OC (stereo not given)	> 100
COc1cc(C(=O)C2Sc3nnc(-c4cc(OC)c(OC)c(OC)c4)n3NC2c2cccs2)cc(OC)c1OC (stereo not given)	> 100
COc1ccc(C(=O)C2Sc3nnc(-c4cc(OC)c(OC)c(OC)c4)n3NC2c2cccs2)cc1 (stereo not given)	68
COc1cc(-c2nnc3n2NC(c2ccco2)C(C(=O)c2ccc(Cl)cc2)S3)cc(OC)c1OC (stereo not given)	78.6
COc1cc(-c2nnc3n2NC(c2ccco2)C(C(=O)C2CC2)S3)cc(OC)c1OC (stereo not given)	> 100
COc1cc(-c2nnc3n2NC(c2cccs2)C(C(=O)c2ccc(C)cc2)S3)cc(OC)c1OC (stereo not given)	3.7
COc1ccc(C(=O)C2Sc3nnc(-c4cc(OC)c(OC)c(OC)c4)n3NC2c2ccco2)cc1 (stereo not given)	> 100
COc1cc(-c2nnc3n2NC(c2cccs2)C(C(=O)c2ccc(F)cc2)S3)cc(OC)c1OC (stereo not given)	54.2
COc1cc(-c2nnc3n2NC(c2ccco2)C(C(=O)c2ccccc2C)S3)cc(OC)c1OC (stereo not given)	63
COc1cc(-c2nnc3n2NC(c2ccco2)C(C(=O)c2ccco2)S3)cc(OC)c1OC (stereo not given)	> 100
COc1cc(-c2nnc3n2NC(c2cccs2)C(C(=O)c2ccc(Cl)cc2)S3)cc(OC)c1OC (stereo not given)	13.2
COc1cc(-c2nnc3n2NC(c2ccco2)C(C(=O)c2ccc(C)cc2)S3)cc(OC)c1OC (stereo not given)	17.4

Test system: PC-3
Experiment: Cell cycle arrest in human PC3 cells assessed as accumulation at G2/M phase at 2 uM after 48 hrs by flow cytometry (Rvb=16.72%)
Type: functional
Conditions: not given

Structure (SMILES)	Activity [%]
COc1cc(-c2nnc3n2NC(c2cccs2)C(C(=O)c2ccc(C)cc2)S3)cc(OC)c1OC (stereo not given)	47.22

Test system: PC-3
Experiment: Cell cycle arrest in human PC3 cells assessed as accumulation at S phase at 2 uM after 48 hrs by flow cytometry (Rvb=21.10%)
Type: functional
Conditions: not given

Structure (SMILES)	Activity [%]
COc1cc(-c2nnc3n2NC(c2cccs2)C(C(=O)c2ccc(C)cc2)S3)cc(OC)c1OC (stereo not given)	15.52

Test system: PC-3
Experiment: Cell cycle arrest in human PC3 cells assessed as accumulation at S phase at 8 uM after 48 hrs by flow cytometry (Rvb=21.10%)
Type: functional
Conditions: not given

Structure (SMILES)	Activity [%]
COc1cc(-c2nnc3n2NC(c2cccs2)C(C(=O)c2ccc(C)cc2)S3)cc(OC)c1OC (stereo not given)	9.79
